Experimental data taken from US6693125B2 (CombinatoRx Incorporated, priority 2001, dated 2004).

Legend:
[1] = system: A549 lung adenocarcinoma cells; experiment: A549 bromodeoxyuridine (BrdU) cytoblot antiproliferative assay of compound dilution matrix; format: cell-based
Method: An 8× stock solution (128 μM) of each individual compound was made in Dulbecco's Modified Eagle Medium (DMEM) (Gibco 11995-040) containing 10% fetal bovine serum (FBS), […] L-glutamine, and 1% antibiotic/antimycotic solution. From this a 2-fold dilution series was made in DMEM. […] This compound mixture plate provided 4× concentrations of each compound that are transferred to assay plates.
The compound dilution matrix was assayed using the A549 bromodeoxyuri dine (BrdU) cytoblot method. […] Fifteen microliters of the 4× compound mixture matrix was added to each well of the plate containing the cells. The compound mixture matrix was transferred using a 16-channel pipettor (Finnpipette). In addition, control wells with paclitaxel (final concentration 4.6 μM), podophyllotoxin (9.6 μM), and quinacrine (8.5 μM) were added to each plate. Each experiment was conducted in triplicate plates.
After incubation for 48 hours at 37° C., BrdU was added to each well at a concentration of 10 μM. After 16 hours, the media was aspirated and the cells were fixed by the addition of 70% ethanol and phosphate-buffered saline (PBS) at room temperature for 1 hour. The fixative was aspirated and 2N HCl with Tween 20 (polyoxyethylene sorbitan monolaurate) was added to each well and the plates were incubated for 20 minutes at room temperature. The HCl was neutralized with a solution of 2N NaOH and the cells were washed twice with Hank's Balanced Salt Solution (HBSS) and once with PBS containing 0.5% bovine serum albumin (BSA) and 0.1% Tween 20. The wash solution was removed and mouse anti-BrdU primary antibody (PharMingen #555627) was diluted 1:1000 in PBS containing BSA, Tween 20, and secondary antibody at a dilution of 1:2000 (Amersham #NA931). The secondary antibody recognizes the mouse antibody and is conjugated to the enzyme horseradish peroxidase (HRP). After one hour of incubation, the antibody solution was removed and the cells washed once with PBS. After the PBS wash, the HRP substrate (which contains luminol, hydrogen peroxide, and an enhancer such as para-iodophenol) was added to each well. The plates were read using an LJL Analyst. All aspirations as well as the washes with PBS and HBSS were performed using a TECAN™ Power Washer 384. The amount of light output from each well indicates the amount of DNA synthesis that occurred in that well. Decreased light indicates antiproliferative action of the compounds.
Antiproliferative ratios were also calculated for paclitaxel, podophyllotoxin, and quinacrine and used for comparison.
The assays were performed as described in Example 2, above.

[2] = cited from earlier work
[3] = mice, single intraperitoneal injection 10 mg/kg; cited from earlier work
[4] = system: nocodozole-resistant NocR and Podrii6 cell lines; settings: Gupta, Mol. Pharmacol. 30:142-148, 1986; cited from earlier work
[5] = Homo sapiens, A549, read-out: inhibition of growth

COC(=O)Nc1nc2ccc(C(=O)c3ccccc3)cc2[nH]1 [Mebendazole, mebendazole]
antiproliferative ratio ([1]; mebendazole 0.015 μM + pentamidine isethionate 0 μM): 1.0
antiproliferative ratio ([1]; mebendazole 0.03 μM + pentamidine isethionate 0 μM): 1.4
antiproliferative ratio ([1]; mebendazole 0.06 μM + pentamidine isethionate 0 μM): 1.0
antiproliferative ratio ([1]; mebendazole 0.13 μM + pentamidine isethionate 0 μM): 1.5
antiproliferative ratio ([1]; mebendazole 0.25 μM + pentamidine isethionate 0 μM): 1.5
antiproliferative ratio ([1]; mebendazole 0.5 μM + pentamidine isethionate 0 μM): 2.8
antiproliferative ratio ([1]; mebendazole 1 μM + pentamidine isethionate 0 μM): 3.4
antiproliferative ratio ([1]; mebendazole 2 μM + pentamidine isethionate 0 μM): 5.0
antiproliferative ratio ([1]; mebendazole 4 μM + pentamidine isethionate 0 μM): 4.4

CCCOc1ccc2nc(NC(=O)OC)[nH]c2c1 [Oxibendazole, oxibendazole]
antiproliferative ratio ([1]; oxibendazole 0.015 μM + pentamidine isethionate 0 μM): 1.0
antiproliferative ratio ([1]; oxibendazole 0.03 μM + pentamidine isethionate 0 μM): 1.1
antiproliferative ratio ([1]; oxibendazole 0.06 μM + pentamidine isethionate 0 μM): 1.0
antiproliferative ratio ([1]; oxibendazole 0.13 μM + pentamidine isethionate 0 μM): 1.1
antiproliferative ratio ([1]; oxibendazole 0.25 μM + pentamidine isethionate 0 μM): 1.0
antiproliferative ratio ([1]; oxibendazole 0.5 μM + pentamidine isethionate 0 μM): 1.6
antiproliferative ratio ([1]; oxibendazole 1 μM + pentamidine isethionate 0 μM): 2.9
antiproliferative ratio ([1]; oxibendazole 2 μM + pentamidine isethionate 0 μM): 3.2
antiproliferative ratio ([1]; oxibendazole 4 μM + pentamidine isethionate 0 μM): 3.6

N=C(N)c1ccc(OCCCCCOc2ccc(C(=N)N)cc2)cc1 [Pentamidine Isethionate, 4,4′-diamidino-diphenoxypentane di(β-hydroxyethanesulfonate)]
solubility in ether, acetone, and chloroform [2]: insoluble
solubility in water and glycerin [2]: soluble
inhibition at 2 µM [1, 5]: 47%
inhibition at 4 µM [1, 5]: 55%

N=C(N)c1ccc(OCCCCCOc2ccc(C(=N)N)cc2)cc1 [pentamidine]
tissue distribution (concentration ranking) [3]: The concentration in the kidneys was the highest, followed by that in the liver

CC(=O)O[C@H]1C(=O)[C@@]2(C)[C@H]([C@H](OC(=O)c3ccccc3)[C@]3(O)C[C@H](OC(=O)[C@H](O)[C@@H](NC(=O)c4ccccc4)c4ccccc4)C(C)=C1C3(C)C)[C@]1(OC(C)=O)CO[C@@H]1C[C@@H]2O [paclitaxel]
antiproliferative ratio ([1]; control wells, paclitaxel final concentration 4.6 μM): 4.0

CCCSc1ccc2[nH]c(NC(=O)OC)nc2c1 [Albendazole, albendazole]
antiproliferative ratio ([1]; albendazole 0.03 μM + pentamidine isethionate 0 μM): 1.3
antiproliferative ratio ([1]; albendazole 0.06 μM + pentamidine isethionate 0 μM): 0.9
antiproliferative ratio ([1]; albendazole 0.13 μM + pentamidine isethionate 0 μM): 1.2
antiproliferative ratio ([1]; albendazole 0.25 μM + pentamidine isethionate 0 μM): 1.3
antiproliferative ratio ([1]; albendazole 0.5 μM + pentamidine isethionate 0 μM): 1.2
antiproliferative ratio ([1]; albendazole 1 μM + pentamidine isethionate 0 μM): 1.4
antiproliferative ratio ([1]; albendazole 2 μM + pentamidine isethionate 0 μM): 2.5
antiproliferative ratio ([1]; albendazole 4 μM + pentamidine isethionate 0 μM): 2.4
antiproliferative ratio ([1]; albendazole 4 μM + pentamidine isethionate 0 μM, listed as albendazole): increased no further
antiproliferative ratio ([1]; albendazole 8 μM + pentamidine isethionate 0 μM): 3.1
inhibition of growth ([1]; albendazole alone, two micromolar): 60%

CCC[S+]([O-])c1ccc2[nH]c(NC(=O)OC)nc2c1 (stereo not shown) [Albendazole Sulfoxide, albendazole sulfoxide]
antiproliferative ratio ([1]; albendazole sulfoxide 0.5 μM + pentamidine isethionate 0 μM): 1.2
antiproliferative ratio ([1]; albendazole sulfoxide 1 μM + pentamidine isethionate 0 μM): 1.1
antiproliferative ratio ([1]; albendazole sulfoxide 2 μM + pentamidine isethionate 0 μM): 1.2
antiproliferative ratio ([1]; albendazole sulfoxide 4 μM + pentamidine isethionate 0 μM): 1.4
antiproliferative ratio ([1]; albendazole sulfoxide 8 μM + pentamidine isethionate 0 μM): 1.4

c1ccc2[nH]c(-c3cscn3)nc2c1 [Thiabendazole, thiabendazole]
cross-resistance of nocodozole-resistant cell lines [4]: lack of cross-resistance
antiproliferative ratio ([1]; thiabendazole 0.25 μM + pentamidine isethionate 0 μM): 1.2
antiproliferative ratio ([1]; thiabendazole 0.5 μM + pentamidine isethionate 0 μM): 1.2
antiproliferative ratio ([1]; thiabendazole 1 μM + pentamidine isethionate 0 μM): 1.2
antiproliferative ratio ([1]; thiabendazole 2 μM + pentamidine isethionate 0 μM): 1.2
antiproliferative ratio ([1]; thiabendazole 4 μM + pentamidine isethionate 0 μM): 1.2
